From patent publication US20120065195A1, “COMPOUNDS FOR TREATING NEURODEGENERATIVE DISEASES” (priority 2010, published 2012)

Target: T1, BACE1 (Homo sapiens, UniProt P56817)
T1 construct: endogenous in cells; host or cells: HEK-293 (stably transfected with wild type APP695 only)
Test: Cellular BACE1 Inhibition Assay (in vitro cellular Amyloidβ 1-40 production assay, HTRF immunoassay)
Type: cell-based
Experimental: The BACE inhibition properties of the compounds of the invention may be determined by the following in vitro cellular Amyloidβ 1-40 production assay.
Inhibition of Amyloidβ1-40 production was determined by incubating cells with compound for 48 hours and quantifying the level of Amyloidβ 1-40 using an HTRF immunoassay.
Materials and Methods: HEK-293 cells stably transfected with a DNA construct containing the coding sequence for the wild type APP695 sequence were grown in DMEM supplemented with 10% fetal bovine serum, penicillin/streptomycin and 150 μg/mL G418. Cells were plated in 96-well plates at 35,000 cells/well and allowed to attach for 8-12 hours. Media was changed to DMEM supplemented with 10% fetal bovine serum, penicillin/streptomycin 15 minutes prior to compound addition. Diluted compounds were then added at a final concentration of 0.5% DMSO. After 48 hours, 4 μL of media from each well was added to a corresponding well of a 384 well plate (Perkin Elmer Cat#6008280) containing the HTRF reagents. HTRF reagents were obtained from the CisBio Amyloidβ 1-40 peptide assay kit (Cat#62B40PEC) and were prepared as follows anti-peptide β (1-40)-Cryptate and anti-peptide β (1-40)-XL655 were stored in 2 plate aliquots at −80° C. Diluent and Reconstitution buffer were stored at 4° C. Aliquots of the two antibodies were diluted 1:100 with Reconstitution buffer, and this mixture was diluted 1:2 with Diluent. 12 μL of the reagent mixture was added to the required wells of the 384 well assay plate. The assay plate was incubated at 4° C. for 17 hours and then analyzed for fluorescence at 665 and 620 nm.

T1 sequence (P56817 46-501): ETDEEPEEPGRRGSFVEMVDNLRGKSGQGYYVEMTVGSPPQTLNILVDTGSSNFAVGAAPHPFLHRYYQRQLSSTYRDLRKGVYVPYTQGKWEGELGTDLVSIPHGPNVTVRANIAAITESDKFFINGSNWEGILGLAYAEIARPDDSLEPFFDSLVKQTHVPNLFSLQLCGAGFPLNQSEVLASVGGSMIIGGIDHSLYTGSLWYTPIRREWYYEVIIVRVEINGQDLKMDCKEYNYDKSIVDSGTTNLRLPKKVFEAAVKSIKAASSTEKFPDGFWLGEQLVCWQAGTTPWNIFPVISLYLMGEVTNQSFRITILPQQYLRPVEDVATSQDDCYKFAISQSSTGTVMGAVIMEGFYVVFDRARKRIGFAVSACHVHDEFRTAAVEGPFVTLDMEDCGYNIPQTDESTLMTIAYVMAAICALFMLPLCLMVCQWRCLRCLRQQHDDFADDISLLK

SMILES | IC50 [nM]
CN1C(=O)[C@]2(N=C1N)c1cc(-c3cncnc3)ccc1C[C@]1(C)CC12 (single isomer, unassigned) [Example 155] | 27.1
CN1C(=O)C2(CC(C)(C)Cc3ccc(/C=C/C4CC4)cc32)N=C1N (stereo not shown) [Example 15, (E)-2-amino-7′-(2-cyclopropylvinyl)-1,3′,3′-trimethyl-3′,4′-dihydro-2′H-spiro[imidazole-4,1′-naphthalen]-5(1H)-one] | 76.7
CN1C(=O)C2(CC(C)(C)Cc3ccc(C#CC4CC4)cc32)N=C1N (stereo not shown) [Example 17, 2-amino-7′-(cyclopropylethynyl)-1,3′,3′-trimethyl-3′,4′-dihydro-2′H-spiro[imidazole-4,1′-naphthalen]-5(1H)-one] | 81.9
CN1C(=O)C2(CC(C)(C)Cc3ccc(C#CCCCC#N)cc32)N=C1N (stereo not shown) [Example 18, 6-(2-amino-1,3′,3′-trimethyl-5-oxo-1,3′,4′,5-tetrahydro-2′H-spiro[imidazole-4,1′-naphthalene]-7′-yl)hex-5-ynenitrile] | 37.4
CN1C(=O)C2(CC(C)(C)Cc3ccc(-c4cccc(Cl)c4)nc32)N=C1N (stereo not shown) [Example 20, 2-amino-2′-(3-chlorophenyl)-1,6′,6′-trimethyl-6′,7′-dihydro-5′H-spiro[imidazole-4,8′-quinolin]-5(1H)-one] | 1430
CC1CCc2ccc(-c3cccc(Cl)c3)cc2C12N=C(N)N(C)C2=O (stereo not shown) [Example 21, 2-amino-7′-(3-chlorophenyl)-1,2′-dimethyl-3′,4′-dihydro-2′H-spiro[imidazole-4,1′-naphthalen]-5(1H)-one] | 226
CC(C)CCc1ccc2c(c1)C1(N=C(N)N(C)C1=O)C(C)CC2 (stereo not shown) [Example 22] | 264
CN1C(=O)C2(CCCc3ccc(-c4cncc(Cl)c4)cc32)N=C1N (stereo not shown) [Example 23, 2-amino-7′-(5-chloropyridin-3-yl)-1-methyl-3′,4′-dihydro-2′H-spiro[imidazole-4,1′-naphthalen]-5(1H)-one] | 28.5
CN1C(=O)C2(CCCc3ccc(-c4cccc(Cl)c4)cc32)N=C1N (stereo not shown) [Example 24, 2-amino-7′-(3-chlorophenyl)-1-methyl-3′,4′-dihydro-2′H-spiro[imidazole-4,1′-naphthalen]-5(1H)-one] | 189
CN1C(=O)C2(CCCc3ccc(-c4cncnc4)cc32)N=C1N (stereo not shown) [Example 25, 2-Amino-1-methyl-7′-(pyrimidin-5-yl)-3′,4′-dihydro-2′H-spiro[imidazole-4,1′-naphthalen]-5(1H)-one] | 104
CN1C(=O)C2(N=C1N)c1cc(-c3cncc(Cl)c3)ccc1CCC2(C)C (stereo not shown) [Example 26, 2-amino-7′-(5-chloropyridin-3-yl)-1,2′,2′-trimethyl-3′,4′-dihydro-2′H-spiro[imidazole-4,1′-naphthalen]-5(1H)-one] | 19.7
CN1C(=O)C2(N=C1N)c1cc(-c3cncnc3)ccc1CCC2(C)C (stereo not shown) [Example 27, 2-amino-1,2′,2′-trimethyl-7′-(pyrimidin-5-yl)-3′,4′-dihydro-TH-spiro[imidazole-4,1′-naphthalen]-5(1H)-one] | 10.1
CN1C(=O)C2(N=C1N)c1cc(-c3cccc(C#N)c3)ccc1CCC2(C)C (stereo not shown) [Example 28, 3-(2-amino-1,2′,2′-trimethyl-5-oxo-1,3′,4′,5-tetrahydro-2′H-spiro[imidazole-4,1′-naphthalene]-7′-yl)benzonitrile] | 92.5
CN1C(=O)[C@@]2(N=C1N)c1cc(-c3cccc(Cl)c3)ccc1CC[C@H]2CC1CCN(CC(F)F)CC1 [Example 32, (1′S,2′S)-2-amino-7′-(3-chlorophenyl)-2′-((1-(2,2-difluoroethyl)piperidin-4-yl)methyl)-1-methyl-3′,4′-dihydro-2′H-spiro[imidazole-4,1′-naphthalen]-5(1H)-one] | 48.6
CN1C(=O)C2(N=C1N)c1cc(-c3cccc(Cl)c3)ccc1CCC21CCOCC1 (stereo not shown) [Example 35, 2-amino-7″-(3-chlorophenyl)-1-methyl-2′,3′,5′,6′-tetrahydro-3″,4″-dihydro-2″H-dispiro[midazol-4,1″-naphthalen-2″,4′-pyran]-5(1H)-one] | 192
CN1C(=O)C2(CC3(CCC3)Cc3ccc(-c4cccc(Cl)c4)cc32)N=C1N (stereo not shown) [Example 37, 2-amino-7′-(3-chlorophenyl)-1-methyl-5-oxo-3′,4′-dihydro-2′H-dispiro[imidazol-4,1′-naphthalen-3′,1″-cyclobutyl]-5 (1H)-one] | 241

SMILES | IC50 [nM]
CN1C(=O)C2(CC3(CCOCC3)Cc3ccc(-c4cc(F)cc(Cl)c4)cc32)N=C1N (stereo not shown) [Example 42, 2-amino-7″-(3-fluoro-5-chlorophenyl)-1-methyl-2′,3′,5′,6′-tetrahydro-3″,4″-dihydro-2″H-dispiro[imidazol-4,1″-naphthalen-3″,4′-pyran]-5(1H)-one] | 121
CN1C(=O)C2(CC3(CCOCC3)Cc3ccc(/C=C/C(C)(C)C)cc32)N=C1N (stereo not shown) [Example 45, (E)-2-amino-7″-(3,3-dimethylbut-1-enyl)-1-methyl-2′,3′,5′,6′-tetrahydro-3″,4″-dihydro-2″H-dispiro[imidazol-4,1″-naphthalen-3″,4′-pyran]-5(1H)-one] | 69.6
CC1CCc2ccc(-c3cc(F)cc(Cl)c3)cc2C12N=C(N)N(C)C2=O (stereo not shown) [Example 56, 2-amino-7′-(3-chloro-5-fluorophenyl)-1,2′-dimethyl-3′,4′-dihydro-2′H-spiro[imidazole-4,1′-naphthalen]-5(1H)-one] | 361
CC1CCc2ccc(-c3cccc(OC(F)F)c3)cc2C12N=C(N)N(C)C2=O (stereo not shown) [Example 57, 2-amino-7′-(3-(difluoromethoxy)phenyl)-1,2′-dimethy1-3′,4-dihydro-2′H-spiro[imidazole-4,1′-naphthalen]-5(1H)-one] | 363
CN1C(=O)[C@@]2(N=C1N)c1cc(-c3cccc(Cl)c3)ccc1CC[C@@H]2CC1CCN(CC(F)F)CC1 [Example 62, (1′S,2′R)-2-amino-7′-(3-chlorophenyl)-2′-((1-(2,2-difluoroethyl)piperidin-4-yl)methyl)-1-methyl-3′,4′-dihydro-2′H-spiro[imidazole-4,1′-naphthalen]-5(1H)-one] | 306
CN1C(=O)C2(CC3(CCOCC3)Cc3ccc(-c4cncnc4)cc32)N=C1N (stereo not shown) [Example 74, 2-amino-7″-(pyrimidin-5-yl)-1-methyl-2′,3′,5′,6′-tetrahydro-3″,4″-dihydro-2″H-dispiro[imidazol-4,1″- naphthalen-3″,4′-pyran]-5(1H)-one] | 258
CC1(C)Cc2ccc(NC(=O)c3ccc(Br)cn3)cc2C2(COC(N)=N2)C1 (stereo not shown) [Example 88, N-(2′-amino-3,3-dimethyl-3,4-dihydro-2H,5′H-spiro[naphthalene-1,4′-oxazole]-7-yl)-5-bromopicolinamide] | 46.3
Cc1nc(C(=O)Nc2ccc3c(c2)C2(COC(N)=N2)CC(C)(C)C3)co1 (stereo not shown) [Example 90, N-(2′-amino-3-dimethyl-3,4-dihydro-2H,5′H-spiro[naphthalene-1,4′-oxazole]-7-yl)-2-methyloxazole-4-carboxamide] | 16.8
Cc1cc(C(=O)Nc2ccc3c(c2)C2(CCSC(N)=N2)CC(C)(C)C3)c(C)o1 (stereo not shown) [Example 95, N-(2′-amino-3,3-dimethyl-3,4,5′,6′-tetrahydro-2H-spiro[naphthalene-1,4′-[1,3]thiazine]-7-yl)-2,5-dimethylfuran-3-carboxamide] | 276
CN1C(=O)CC2(CC(C)(C)Cc3ccc(-c4cccnc4F)cc32)N=C1N (stereo not shown) [Example 96, 2′-amino-7-(2-fluoropyridin-3-yl)-1′,3,3-trimethyl-3,4-dihydro-1′H,2H-spiro[naphthalene-1,4′-pyrimidin]-6′(5′H)-one] | 1320
CC1(C)Cc2ccc(-c3cncnc3)cc2C2(CSC(N)=N2)C1 (stereo not shown) [Example 109, 3,3-dimethyl-7-(pyrimidin-5-yl)-3,4-dihydro-2H,5′H-spiro[naphthalene-1,4′-thiazol]-2′-amine] | 482
Cc1cncc(-c2ccc3c(c2)C2(CC(C)(C)C3)N=C(N)N(C)C2=O)c1 (stereo not shown) [Example 131, 2-amino-1,3′,3′-trimethyl-7′-(5-methylpyridin-3-yl)-3′,4′-dihydro-2′H-spiro[imidazole-4,1′-naphthalen]-5 (1H)-one] | 5.1
CN1C(=O)C2(CC(C)(C)Cc3ccc(-c4cncc(C#N)c4)cc32)N=C1N (stereo not shown) [Example 134, 5-(2-amino-1,3′,3′-trimethyl-5-oxo-1,3′,4′,5-tetrahydro-2′H-spiro[imidazole-4,1′-naphthalene]-7′-yl)nicotinonitrile] | 7.9
Cc1cnc(F)c(-c2ccc3c(c2)C2(CC(C)(C)C3)N=C(N)N(C)C2=O)c1 (stereo not shown) [Example 135, 2-amino-7′-(2-fluoro-5-methylpyridin-3-yl)-1,3′,3′-trimethyl-3′,4′-dihydro-2′H-spiro[imidazole-4,1′-naphthalen]-5(1H)-one] | 8.1
COc1ccnc(-c2ccc3c(c2)C2(CC(C)(C)C3)N=C(N)N(C)C2=O)c1 (stereo not shown) [Example 137, 2-amino-7′-(4-methoxypyridin-2-yl)-1,3′,3′-trimethyl-3′,4′-dihydro-2′H-spiro[imidazole-4,1′-naphthalen]-5(1H)-one] | 6.1
